This data set can be described thus: Pharmacokinetic study, oral exposure in rats. The class given is in vivo. The conditions noted are these: male Sprague-Dawley rats, single oral dose 10 mg/kg, plasma. As for the experimental part:
Pharmacokinetic studies of select compounds were performed to assess the pharmacokinetic properties. Male Sprague-Dawley rats were administered a single oral dose of the test compound at 10 mg/kg (dose concentration: 2 mg/mL, dose volume: 5 ml/kg) via oral gavage. Blood samples were collected via jugular vein at pre-dose, post-dose 5 min, 15 min, 30 min, 1 h, 2 h, 4 h, 6 h, 8 h, 10 h and 24 h, and centrifuged (8000 rpm for 6 minutes at 2-8° C.). The resulting plasma fractions were analyzed by LC/MS/MS to determine the concentration of the test compound.

On to `Cc1cc(N)nc(C)c1CNC(=O)c1cn(Cc2ccc3ncc(Cl)cc3c2)c2ccncc12` [Example 35, N-((6-amino-2,4-dimethylpyridin-3-yl)methyl)-1-((3-chloroquinolin-6-yl)methyl)-1H-pyrrolo[3,2-c]pyridine-3-carboxamide], for which the AUC entry is “BLQ”. Consider `Cc1cc(N)nc(C)c1CNC(=O)c1cn(Cc2ccc3ncc(Cl)cc3c2)c2cnc(C#N)cc12` [Example 134, N-((6-amino-2,4-dimethylpyridin-3-yl)methyl)-1-((3-chloroquinolin-6-yl)methyl)-5-cyano-1H-pyrrolo[2,3-c]pyridine-3-carboxamide], for which the AUC result is reported as “BLQ”.

For `Cc1cc(N)nc(C)c1CNC(=O)c1c[nH]c(Cc2ccc3ncc(Cl)cc3c2)n1` [Example 5, N-((6-amino-2,4-dimethylpyridin-3-yl)methyl)-2-((3-chloroquinolin-6-yl)methyl)-1H-imidazole-5-carboxamide], the AUC result was “BLQ”.

Source of the values: patent publication US10781200B2, “Therapeutic inhibitory compounds” (Attune Pharmaceuticals, Inc., priority 2016, dated 2020).
